Patent US20260116921A1, “PEPTIDE INHIBITORS OF INTERLEUKIN-23 RECEPTOR AND THEIR USE TO TREAT INFLAMMATORY DISEASES” (priority 2018, published 2026)
Like-named read-outs stand apart in the source and are kept apart here. One block for each molecule: values may come before it. Numbered stars: 1 amine (or outer) side, 2 acyl side, 3 side chain; on linkers, the order of the positions; unused ones are H or OH. Bridge positions count the residues as written; N and C are the ends. Square brackets hold non-standard residues; d marks the D form. Peptide text beside a SMILES is read from it. Trp(7-Me) = Cc1cccc2c(C[C@H](N)C(=O)O)c[nH]c12; Abu(4-yl) = O=C([C@H](CC[*:3])N[*:1])[*:2]; 2Nal = N[C@@H](Cc1ccc2ccccc2c1)C(=O)O; AEF = NCCOc1ccc(C[C@H](N)C(=O)O)cc1; Cit = NC(=O)NCCC[C@H](N)C(=O)O; Pen = CC(C)(S)[C@H](N)C(=O)O; αMeK = C[C@](N)(CCCCN)C(=O)O; Aib = CC(C)(N)C(=O)O; βAla = NCCC(=O)O

Experiments:
[1] = molecular target: T1, IL-23R (Homo sapiens, UniProt Q5VWK5); experiment: DB cells IL23R pSTAT3 cell assay (pStat3 HTRF); type: cell-based; details: Table E3; DB cells, IL-23 0.5 nM, 30 minutes at 37° C.; read-out: pStat3 HTRF (IC50)
T1 sequence (Q5VWK5 24-629): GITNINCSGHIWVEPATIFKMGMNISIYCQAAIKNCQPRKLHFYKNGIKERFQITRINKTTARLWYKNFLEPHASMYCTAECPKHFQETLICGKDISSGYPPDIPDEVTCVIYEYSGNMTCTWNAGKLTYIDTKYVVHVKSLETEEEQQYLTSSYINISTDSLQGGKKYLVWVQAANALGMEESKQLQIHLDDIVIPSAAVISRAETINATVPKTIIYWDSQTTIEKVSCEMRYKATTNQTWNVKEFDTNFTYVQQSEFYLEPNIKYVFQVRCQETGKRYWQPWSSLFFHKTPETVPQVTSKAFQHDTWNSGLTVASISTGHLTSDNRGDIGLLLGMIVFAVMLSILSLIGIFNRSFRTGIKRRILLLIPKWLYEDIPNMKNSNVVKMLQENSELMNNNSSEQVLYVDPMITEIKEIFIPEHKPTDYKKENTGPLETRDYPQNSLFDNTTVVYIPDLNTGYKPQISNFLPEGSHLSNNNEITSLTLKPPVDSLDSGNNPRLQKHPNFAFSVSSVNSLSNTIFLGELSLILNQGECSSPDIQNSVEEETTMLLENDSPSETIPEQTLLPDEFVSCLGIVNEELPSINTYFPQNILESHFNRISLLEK
Method in brief: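 HTRF readout of lysate pSTAT3 (Tyr705) after two-plate processing. Peptide dilution series co-incubated with IL-23 (0.5 nM final) on 5×10E5 IL-23R-expressing DB cells per well, 30 min, 37 °C.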

[2] = 20% human fecal homogenate, 37° C., 20 μM
[3] = 20% cynomolgus monkey fecal homogenate, 37° C., 20 μM
[4] = SD rat plasma, 37° C., 20 μM
[5] = in vitro; type: in vitro ADME; set-up: half-life: dose or concentration left out as unconfirmed; details: pH 6.8, 37° C., § matrix is 100 fold dilution of standard SIF concentration; for SIF t½: simulated intestinal fluid, pancreatin; for half-life: simulated intestinal fluid (SIF) with pancreatin, read-out: SIF t½ (converted)
[6] = molecular target: T2, IL-23R (human, UniProt Q5VWK5 24-629); experiment: cell-based or functional assay
T2 sequence (looked up): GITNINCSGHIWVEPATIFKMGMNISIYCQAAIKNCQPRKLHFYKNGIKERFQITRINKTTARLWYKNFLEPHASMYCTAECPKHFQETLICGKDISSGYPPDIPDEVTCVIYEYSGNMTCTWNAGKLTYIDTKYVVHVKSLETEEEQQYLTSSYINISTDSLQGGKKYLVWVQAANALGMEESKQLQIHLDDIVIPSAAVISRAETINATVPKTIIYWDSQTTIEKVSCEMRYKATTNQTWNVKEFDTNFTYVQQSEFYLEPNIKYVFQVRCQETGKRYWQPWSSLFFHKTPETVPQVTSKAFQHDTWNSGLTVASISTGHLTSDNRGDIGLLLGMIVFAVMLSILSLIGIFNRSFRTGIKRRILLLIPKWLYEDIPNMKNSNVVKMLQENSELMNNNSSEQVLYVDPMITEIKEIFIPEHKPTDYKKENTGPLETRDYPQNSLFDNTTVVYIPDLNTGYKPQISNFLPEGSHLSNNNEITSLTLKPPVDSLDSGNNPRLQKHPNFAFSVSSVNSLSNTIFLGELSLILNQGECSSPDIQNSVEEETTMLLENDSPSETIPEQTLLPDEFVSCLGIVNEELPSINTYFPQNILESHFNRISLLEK

[7] = molecular target: T2, IL-23R; experiment: cell-based or functional assay; remark: listed apart in the source
[8] = molecular target: T2, IL-23R; experiment: cell-based or functional assay; remark: listed apart in the source

Molecule: CC(=O)NCCCC[C@H](NC(=O)[C@](C)(CCCCN)NC(=O)[C@H](Cc1ccc2ccccc2c1)NC(=O)[C@H](Cc1ccc(OCCN)cc1)NC(=O)[C@H]1NC(=O)[C@H](CCC(N)=O)NC(=O)[C@H](Cc2c[nH]c3c(C)cccc23)NC(=O)[C@H]([C@@H](C)O)NC(=O)C(C)(C)NC(=O)[C@@H](NC(C)=O)C(C)(C)SSC1(C)C)C(=O)N[C@@H](CC(N)=O)C(=O)NCCC(N)=O [compound 240] (Ac-[Pen][Aib]T[Trp(7-Me)]Q[Pen][AEF][2Nal][αMeK]K(Ac)N[βAla]-NH2; disulfide 1-6)
IC50 [1]: 10 to 100 nM
t½: Human Feces anaerobic [2]: 4 h
t½: Monkey Feces anaerobic [3]: 3 h
t½: Rat Plasma EDTA [4]: 8 h

Molecule: CC(=O)NCCCC[C@H](NC(=O)[C@](C)(CC(C)C)NC(=O)[C@H](Cc1ccc2ccccc2c1)NC(=O)[C@H](Cc1ccc(OCCN)cc1)NC(=O)[C@H]1NC(=O)[C@H](CCC(N)=O)NC(=O)[C@H](Cc2c[nH]c3c(C)cccc23)NC(=O)[C@H]([C@@H](C)O)NC(=O)[C@H](CC(N)=O)NC(=O)[C@@H](NC(C)=O)C(C)(C)SSC1(C)C)C(=O)N[C@@H](C(=O)NCCC(N)=O)[C@H](C)O [compound 218]
t½: Rat Plasma EDTA [4]: 1 h

Molecule: CC(=O)N[C@@H]1C(=O)N[C@@H](CC(N)=O)C(=O)N[C@@H]([C@@H](C)O)C(=O)N[C@@H](Cc2c[nH]c3c(C)cccc23)C(=O)N[C@@H](CCCNC(N)=O)C(=O)N[C@H](C(=O)N[C@@H](Cc2ccc(OCCN)cc2)C(=O)N[C@@H](Cc2ccc3ccccc3c2)C(=O)N[C@@](C)(CCCCN)C(=O)N[C@@H](CCCNC(N)=O)C(=O)NCCC(=O)NCCC(N)=O)C(C)(C)SSC1(C)C [compound 281] (Ac-[Pen]NT[Trp(7-Me)][Cit][Pen][AEF][2Nal][αMeK][Cit][βAla][βAla]-NH2; disulfide 1-6)
IC50 [1]: 10 to 100 nM
SIF t½ [5]: 14 h
t½: Human Feces anaerobic [2]: >24 h
t½: Monkey Feces anaerobic [3]: >24 h
t½: Rat Plasma EDTA [4]: >24 h

Molecule: CC(=O)NCCCC[C@@H]1NC(=O)[C@H](Cc2c[nH]c3c(C)cccc23)NC(=O)[C@H]([C@@H](C)O)NC(=O)[C@H](CC(N)=O)NC(=O)[C@@H](NC(C)=O)C(C)(C)SSC(C)(C)[C@@H](C(=O)N[C@@H](Cc2ccc(OCCN)cc2)C(=O)N[C@@H](Cc2ccc3ccccc3c2)C(=O)N[C@@](C)(CCCCN)C(=O)N[C@@H](CCCCNC(C)=O)C(=O)N[C@@H](CC(N)=O)C(=O)N[C@H](Cc2ccccc2)C(N)=O)NC1=O [compound 258]
SIF t½ [5]: 14 h
t½: Human Feces anaerobic [2]: >24 h
t½: Monkey Feces anaerobic [3]: >24 h
t½: Rat Plasma EDTA [4]: >24 h

Molecule: CC(=O)NCCCC[C@@H]1NC(=O)[C@H](Cc2c[nH]c3c(C)cccc23)NC(=O)[C@H]([C@@H](C)O)NC(=O)[C@H](CCC(N)=O)NC(=O)[C@@H](NC(=O)[C@@H](CCCNC(=N)N)NC(C)=O)CCSC[C@@H](C(=O)N[C@@H](Cc2ccc(OCCN)cc2)C(=O)N[C@@H](Cc2ccc3ccccc3c2)C(=O)N[C@@](C)(CCCCN)C(=O)N[C@@H](CCCCNC(C)=O)C(=O)N[C@@H](CC(N)=O)C(=O)N[C@H](CC(C)C)C(N)=O)NC1=O [compound 325] (Ac-[dR][Abu(4-yl)]QT[Trp(7-Me)]K(Ac)C[AEF][2Nal][αMeK]K(Ac)N[dL]-NH2; thioether 2-7)
half-life [5]: 2 h
t½: Human Feces anaerobic [2]: >24 h
t½: Monkey Feces anaerobic [3]: 22 h

Molecule: CC(=O)NCCCC[C@H](NC(=O)[C@](C)(CC(C)C)NC(=O)[C@H](Cc1ccc2ccccc2c1)NC(=O)[C@H](Cc1ccc(OCCN)cc1)NC(=O)[C@H]1NC(=O)[C@H](CCC(N)=O)NC(=O)[C@H](Cc2c[nH]c3c(C)cccc23)NC(=O)[C@H]([C@@H](C)O)NC(=O)[C@H](CC(N)=O)NC(=O)[C@@H](NC(C)=O)C(C)(C)SSC1(C)C)C(=O)N1CCC[C@H]1C(=O)NCCC(N)=O [compound 211]
IC50 [1]: > 100 nM
t½: Human Feces anaerobic [2]: 10 h
t½: Monkey Feces anaerobic [3]: >24 h

Molecule: CC(=O)NCCCC[C@H](NC(=O)[C@](C)(CCCCN)NC(=O)[C@H](Cc1ccc2ccccc2c1)NC(=O)[C@H](Cc1ccc(OCCN)cc1)NC(=O)[C@H]1NC(=O)[C@H](CCCCNC(=O)C(C)(C)N)NC(=O)[C@H](Cc2c[nH]c3c(C)cccc23)NC(=O)[C@H]([C@@H](C)O)NC(=O)[C@H](CC(N)=O)NC(=O)[C@@H](NC(C)=O)C(C)(C)SSC1(C)C)C(=O)N[C@@H](CC(N)=O)C(=O)N[C@H](CC(C)C)C(N)=O [compound 322]
half-life [5]: 1 h
t½: Human Feces anaerobic [2]: >24 h
t½: Monkey Feces anaerobic [3]: >24 h

pStat3 HTRF (nM) IC50 [6]: < 1 nM
NK Cell Assay (nM) IC50 [7]: < 10 nM
B1: SEQ ID NO: 6 (peptide)
peptide: XNTXQXXXXKNN
modifications: Ac-[Pen]-NT-[W(7-Me)]-Gln-[Pen]-[Phe[4-(2-aminoethoxy)]-[2-Nal]-[α-MeLeu]-[Lys(Ac)]-NN-NH2; Pen-Pen disulfide

pStat3 HTRF (nM) IC50 [8]: < 1 nM
B2: SEQ ID NO: 27 (peptide)
peptide: RXQTXQCXXXENN
modifications: Ac-[(D)Arg]-[Abu]-QT-[W(7-Me)]-QC-[Phe[4-(2-aminoethoxy)]-[2-Nal]-[THP]-ENN-NH2; Abu-Cys thioether

pStat3 HTRF (nM) IC50 [8]: < 1 nM
B3: SEQ ID NO: 28 (peptide)
peptide: XQTXQCXXXENN
modifications: Ac-[Abu]-QT-[W(7-Me)]-QC-[Phe[4-(2-aminoethoxy)]-[2-Nal]-[THP]-ENN-NH2; Abu-Cys thioether

pStat3 HTRF (nM) IC50 [8]: < 1 nM
B4: SEQ ID NO: 29 (peptide)
peptide: RXQTXQCXXXKNN
modifications: Ac-[(D)Arg]-[Abu]-QT-[W(7-Me)]-QC-[Phe[4-(2-aminoethoxy)]-[2-Nal]-[THP]-[Lys(Ac)]-NN-NH2; Abu-Cys thioether
